Measurements as given in publication PMC10934158, “Constituents of Chimaphila japonica and Their Diuretic Activity” (Molecules, 2024).
“And” between values parts separate entries of the source, which are not always exact repeats. Equal entries are not always repeated. Where two headings read alike, the source gives them in different places. Marks after values point to notes of the source that are not given here.

Assays:
Type in all cases: cell-based
MDCK cells = assay: MTT cytotoxicity assay on MDCK cells; conditions: 100 µmol/L, 24 h incubation, mean ± SD of three replicates; for inhibition at 100 µM: Canis lupus familiaris, read-out: Growth Inhibition Rate (%)
Protocol: First, we used the MTT method to examine the cytotoxicity of the compounds (1–12) on MDCK cells at a concentration of 100 µmol/L, and the results are shown in Table 5.
Each compound was evaluated for cytotoxicity on DMCK cells using MTT assays. A 96-well plate containing 1 × 10^4 cells per well was seeded with logarithmic growth-phase DMCK cells, which were then cultured for 24 h in a cell culture incubator. After that, the culture medium was changed to one that included medication (100 µmol/L for the treatment groups, 100 µmol/L for the control group, or 100 µmol/L for the positive control group). In total, 100 µL of the appropriate solution was added to each well, and they were then incubated for a further 24 h. After that, culture media were taken out and changed for a DMEM solution that included 20 µL of MTT (5 mg/mL). After incubating for 4 h, the liquid in each well was removed and replaced with 150 µL of DMSO, which was shaken for 10 min to ensure thorough mixing. The absorbance at 490 nm was measured to determine the optical density (OD) of each well. The cell growth inhibition rate was calculated as follows: cell growth inhibition rate (%) = (ODBlank − ODExperimental)/ODBlank × 100%.

[1] = system: Na^+ transport in MDCK cells; assay: In vitro diuretic activity assay: Na+ transport across MDCK cells in Transwell chamber; conditions: for inhibition at 100 µM: Canis lupus familiaris; for inhibition at 100 µM / Transport Inhibition Rate (%) Na^+: compounds 100 µmol/L, hydrochlorothiazide 200 µmol/L, mean ± SD of three replicates; for Diuretic activity (overall, in words): in vitro Na^+ and Cl^− transport bioassays
Protocol: (§1) Generally, the transport of Na^+ and Cl^− plays an essential role in glomerular filtration and tubular reabsorption.
(§2) Log-phase MDCK cells were seeded in the upper chambers of Transwell plates (4 × 10^4 cells/well), and 800 µL of complete culture medium was added to the lower chambers. After 24 h of incubation at 37 ℃, the electrical resistance of the upper chamber cells was measured one by one (R = (Rcell − Rblank) × 0.04π). When the electrical resistance of the upper chamber cells reached ≥ 300 Ω cm^2, the upper chamber medium was removed and replaced with the drug solution. The blank group (given normal saline), experimental group (1, 4–12, 100 µmol/L), and hydrochlorothiazide group (200 µmol/L) were set, and each well was treated with 200 µL of the corresponding solution. The cells were then further incubated for 24 h. After that, the upper and lower chamber fluids were removed, and 200 µL of NaCl solution (21 mg/mL) was added to the upper chamber, while 800 µL of DMEM was added to the lower chamber for continued incubation. At 1, 2, and 3 h, 50 µL of the lower chamber fluid was taken, and the OD values were measured using Na^+ and Cl^− detection kits. The transport inhibition rate (%) was calculated as follows: transport inhibition rate (%) = (ODblank − ODexperimental)/ODblank × 100%.

[2] = system: Cl^− transport in MDCK cells; assay: In vitro diuretic activity assay: Cl− transport across MDCK cells in Transwell chamber; conditions: for Inhibitory activity on Cl^− transport compared to blank group (in words): 100 µmol/L, significance vs blank group; for inhibition at 100 µM: Canis lupus familiaris, read-out: Transport Inhibition Rate (%) Cl^−
Protocol: as §1, §2

[3] = MDCK Transwell, read-out: Transport Inhibition Rate (%) Na^+
[4] = MDCK Transwell, compounds 100 µmol/L, hydrochlorothiazide 200 µmol/L, mean ± SD of three replicates
[5] = MDCK, read-out: Transport Inhibition Rate (%) Na^+, MDCK Transwell

Row | Molecule | inhibition at 100 µM (MDCK cells) [%] | inhibition at 100 µM [1, 5] [%] | inhibition at 100 µM ([2]; MDCK) [%] | Transport Inhibition Rate (%) Na^+ ([1]; MDCK Transwell) | other results
1 | C/C(=C\Cc1c(O)ccc(O[C@H]2O[C@@H](CO)[C@H](O)[C@@H](O)[C@@H]2O)c1C)CO [Compound 5, 3-[(E)-4-hydroxy-3-methyl-2-butenyl]-4-hydroxy-2-methylphenyl-O-β-D-glucopyranoside] | 4.08 ± 0.03 |  |  |  | inhibition at 100 µM [1, 3]: 7.61 ± 0.71%; Inhibitory activity on Cl^− transport compared to blank group (in words) [2]: good inhibitory activity; inhibition at 100 µM [2, 4]: 4.57 ± 0.65%
2 | C[C@@H]1O[C@@H](Oc2c(-c3ccc(O)c(O)c3)oc3cc(O)cc(O)c3c2=O)[C@H](O)[C@H](O)[C@H]1O [Compound 8, quercitrin] | < 0 | 18.5 ± 1.02 | 0.65 ± 1.45 |  | 
3 | Cc1cc(O)c(-c2cc(O[C@@H]3O[C@H](CO)[C@@H](O)[C@H](O)[C@H]3O)c(C)cc2O)cc1O[C@@H]1O[C@H](CO)[C@@H](O)[C@H](O)[C@H]1O [Compound 3, 5-5′-dehydro-di (2-methyl-4-hydroxy-phenyl-1-O-β-D-glucopyranoside)] | 23.31 ± 0.13 |  |  |  | 
4 | O=c1c(O[C@@H]2O[C@H](CO)[C@H](O)[C@H](O)[C@H]2O)c(-c2ccc(O)c(O)c2)oc2cc(O)cc(O)c12 [Compound 10, hyperoside] | < 0 | 1.82 ± 0.81 | -13.2 ± 1.89 |  | 
5 | Cc1cc(O)ccc1O[C@@H]1O[C@H](CO)[C@@H](O)[C@H](O)[C@H]1O [Compound 6, isohomoarbutin] | < 0 |  |  |  | inhibition at 100 µM [1, 3]: 10.2 ± 1.24%; inhibition at 100 µM [2, 4]: 12.2 ± 1.33%
6 | O=c1c(O)c(-c2ccc(O)cc2)oc2cc(O)cc(O)c12 [Compound 11, kaempferol] | < 0 | > 20 | 27.7 ± 1.18 | 28.81± 1.04 ^e % | Na^+ transport suppression rate at 3 h compared with hydrochlorothiazide (in words) ([1]; 3 h, Figure 3): exceeds that of hydrochlorothiazide; Diuretic activity (overall, in words) [1]: potent diuretic activity
7 | O=c1c(O[C@@H]2O[C@H](CO)[C@@H](O)[C@H](O)[C@H]2O)c(-c2ccc(O)c(O)c2)oc2cc(O)cc(O)c12 [Compound 9, isoquercitrin] | < 0 | 6.22 ± 0.53 | -8.36 ± 2.6 |  | 
8 | O=c1c(O)c(-c2ccc(O)c(O)c2)oc2cc(O)cc(O)c12 [Compound 7, quercetin] | < 0 | > 20 | 20.7 ± 0.74 | 35.95 ± 1.42 ^e % | Na^+ transport inhibition rate at 1 h ([1]; Figure 3): more than 30.24%; Diuretic activity (overall, in words) [1]: potent diuretic activity; Cl^− transport inhibition rate at peak, second hour ([2]; second hour (peak), Figure 4): higher than 20%
9 | (1R,3R,4R)-3-methylcyclohexanol β-D-glucopyranoside [Compound 4] |  |  |  | higher than 20% and 21.13 ± 0.89 ^e % | Growth Inhibition Rate (%) (MDCK cells): 4.89 ± 0.05%; Diuretic activity (overall, in words) [1]: potent diuretic activity; Transport Inhibition Rate (%) Cl^− [2, 4]: 12.23 ± 0.18 ^e %
10 | Cc1cc(O)ccc1O[C@H]1O[C@@H](CO)[C@H](O)[C@@H](O[C@H]2O[C@@H](CO)[C@H](O)[C@@H](O)[C@@H]2O)[C@@H]1O [Compound 1, 3′-O-β-D-glucopyranosyl-isohomoarbutin] | 4.89 ± 0.05 |  |  |  | inhibition at 100 µM [1, 3]: -11.7 ± 1.14%; inhibition at 100 µM [2, 4]: 9.44 ± 0.78%
11 | Cc1cc(O)ccc1O[C@H]1O[C@@H](CO)[C@H](O[C@H]2O[C@@H](CO)[C@H](O)[C@@H](O)[C@@H]2O)[C@@H](O)[C@@H]1O [Compound 2, 4′-O-β-D-glucopyranosyl-isohomoarbutin] | 29.48 ± 0.12 |  |  |  | 
12 | NS(=O)(=O)c1cc2c(cc1Cl)NCNS2(=O)=O [Hyd, hydrochlorothiazide, reference compound] | < 0 |  |  | 39.74 ± 0.64 ^e % | Na^+ transport inhibition rate at 1 h ([1]; Figure 3): 27.91%; Transport Inhibition Rate (%) Cl^− [2, 4]: 23.42 ± 0.87 ^e %
13 | O=c1c(O[C@@H]2O[C@@H](CO)[C@H](O)[C@H]2O)c(-c2ccc(O)cc2)oc2cc(O)cc(O)c12 [Compound 12, juglanin] | < 0 | 14.2 ± 0.69 | 3.27 ± 0.31 |  | Inhibitory activity on Cl^− transport compared to blank group (in words) [2]: general inhibitory activity
